From patent US12655104B2, “Anticancer compounds selective for ER-positive cancers” (THE BOARD OF TRUSTEES OF THE UNIVERSITY OF ILLINOIS, priority 2020, dated 2026)
Where two headings read alike, the source gives them in different places.

Columns and labels:
ERα− cancer cell lines = experiment: Selectivity of cell killing, ERα+ versus ERα− cancer cell lines; type: cell-based; conditions: MDA-MB-231, HCT-116, HT-29; for potencies against ERα− cancer cell lines (in words): 24- and 72-hour incubations
Description: (§1) Cancer Cell Lines: Culturing Conditions and Validation. All cell lines were cultured at 37° C. with 5% CO2. All ERα-positive cell lines were grown in media lacking phenol red. MCF-7 were grown in EMEM with 10% FBS and 1% penicillin-streptomycin (P/S). T47D were cultured in MEM with 10% FBS and 1% P/S. TYS and TDG cells were grown in MEM supplemented with 10% CD-FBS and 1% P/S. HCT-116 and MDA-MB-231 cells were cultured in RPMI-1640 supplemented with 10% FBS and 1% P/S. MDA-MB-436 cells were cultured in DMEM supplemented with 10% FBS and 1% P/S. HT-29 were cultured in McCoy's media supplemented with 10% FBS and 1% P/S. All cell lines were used directly from ATCC stocks and/or have been further authenticated using PowerPlex16HS Assay (Promega) as described previously.^54 In short, >1 million cells were harvested and lysed using the cell lysis buffer (50 mM Tris, 50 mM EDTA, 25 mM sucrose, 100 mM NaCl, 1% SDS, pH 8). DNA extraction and short tandem repeats (STRs) profiling for each cell line were carried out at the University of Arizona Genetics Core (UAGC). Autosomal STR profiles were compared to reference databases such as ATCC, DSMZ, and JCRB.
(§2) Alamar Blue Fluorescence for Anticancer Activity (IC50). 2,000-15,000 cells per well were seeded a 96-well plate. Cells were allowed to adhere before DMSO stock solutions of test compounds were added to each well with a final concentration of DMSO in each well=1%; final volume: 100 μL. At the end of the desired incubation time (e.g., 24 or 72 hours), media in each well was aspirated and new fresh media (no compound, 100 μL) was added. Alamar blue solution (4 mg resazurin per 40 mL PBS) was then added (10 μL). After 2-6 hours incubation, each well's fluorescence (λexcit.=555 nm, λemission.=585 nm) was measured using a SpectraMax M3 plate reader (Molecular Devices). Percent dead was determined by comparison to a 100% dead control: 100 μM raptinal treated cells. Dose dependent curves and IC50 were calculated using Origin Pro V10.

MCF-7 cells = experiment: Alamar blue fluorescence viability (IC50), MCF-7; type: cell-based; conditions: for IC50: Homo sapiens, MCF7
Description: as §1, §2

[1] = Simulated gastric fluid (SGF) stability assay; type: in vitro ADME; conditions: for half-life at 100 μM: simulated gastric fluid with pepsin, pH 1.2
Description: Simulated Gastric Fluid (SGF) Stability Assay. SGF was prepared fresh by adding 3.2 g pepsin (Sigma Aldrich P7000) to 1000 mL of SGF (Fischer Scientific 7108-16) and the pH adjusted to 1.2 using a pH meter. This SGFwith pepsin solution was then warmed to 37° C. 990 μL of warmed SGFwith pepsin was then aliquoted into multiple Eppendorf tubes, followed by 10 μL of 10 mM DMSO stock solutions of test compounds. Erythromycin (MedChemExpress HY-B0220) is a positive control for this stability assay. Samples were incubated at 37° C. for the entire experiment with vortexing every 15 minutes. At each desired time point (0, 15, 30, 60, 120 minutes), a 100 μL aliquot is removed and quenched into 50 μL of acetonitrile. Samples are stored at 4° C. until all time points are complete. Samples were then vortexed and then clarified at 3,000 RPM for 10 minutes in a 4° C. centrifuge. Supernatants were collected and compound concentrations determined by LC-MS/MS (UIUC Metabolomics Center, Urbana, IL.). Determined compound concentrations were used to calculate percent remaining compared to t=0 samples.

HT-29 = experiment: Alamar blue fluorescence viability (IC50), HT-29; type: cell-based; conditions: Homo sapiens, HT-29, ERα negative
Description: as §1, §2

T47D = experiment: Alamar blue fluorescence viability (IC50), T47D; type: cell-based; conditions: Homo sapiens, 24 h, read-out: IC50 24 hr (μM)
Description: as §1, with “DNA extraction and short tandem repeats (STRs) profiling for each cell line were carried out at the University of Arizona Genetics Core (UAGC). Autosomal STR profiles were compared to reference databases such as ATCC, DSMZ, and JCRB.” left out
(§3) Alamar Blue Fluorescence for Anticancer Activity (IC50). […] After 2-6 hours incubation, each well's fluorescence (λexcit.=555 nm, λemission.=585 nm) was measured using a SpectraMax M3 plate reader (Molecular Devices). Percent dead was determined by comparison to a 100% dead control: 100 μM raptinal treated cells. Dose dependent curves and IC50 were calculated using Origin Pro V10.

HCT-116 = experiment: Alamar blue fluorescence viability (IC50), HCT-116; type: cell-based; conditions: for IC50: Homo sapiens, HCT-116, ERα negative
Description: as §1, §2

canines = conditions: cited from earlier work
T47D-ERaY537S (TYS) = experiment: Alamar blue fluorescence viability (IC50), TYS; type: cell-based; conditions: 24 h, read-out: IC50 24 hr (μM)
Description: as §1, with “DNA extraction and short tandem repeats (STRs) profiling for each cell line were carried out at the University of Arizona Genetics Core (UAGC). Autosomal STR profiles were compared to reference databases such as ATCC, DSMZ, and JCRB.” left out
as §3

MDA-MB-231 = experiment: Alamar blue fluorescence viability (IC50), MDA-MB-231; type: cell-based; conditions: Homo sapiens, MDA-MB-231, ERα negative
Description: as §1, §2

[2] = Maximum tolerated dose (MTD) in rats; type: in vivo; conditions: Sprague Dawley, rat, in vivo, iv
Source text: (§4) Maximum Tolerated Dose (MTD) Experiments in Mice and Rats. […] Rodents were monitored for signs of distress, lethargy, neurotoxicity, and so forth for multiple days after compound administration. […] The MTD was defined as the maximum dose in which any acute side effects observed were tolerated and no lethality observed.

[3] = Maximum tolerated dose (MTD) in mice; type: in vivo; conditions: female, CD-1, mouse, in vivo, iv
Source text: as §4

T47D-ERαD538G (TDG) = experiment: Alamar blue fluorescence viability (IC50), TDG; type: cell-based; conditions: TDG, ERα positive, 24 hr; read-out: IC50 24 hr
Description: as §1, with “DNA extraction and short tandem repeats (STRs) profiling for each cell line were carried out at the University of Arizona Genetics Core (UAGC). Autosomal STR profiles were compared to reference databases such as ATCC, DSMZ, and JCRB.” left out
as §3

MCF-7 tumors = experiment: MCF-7 orthotopic tumor model; type: in vivo, mice; conditions: I.V. 5 mg/kg once-a-week, three total doses
Description: MCF-7 Orthotopic Tumor Model. Nu/J ovariectomized mice (Jackson's lab) were supplemented with a 60-day E2 pellet (0.36 mg, Innovative Research of America) 2-3 days prior to tumor cell inoculation. MCF-7 cells (5×10^6, in 1:1 HBSS:matrigel) were inoculated into the mammary fat pad and allowed to establish and tumors grown to ˜300-400 mm^3 (˜21-28 days to establish). […] Tumor size was measured by caliper, and mouse weights were recorded.

[4] = Pharmacokinetic (PK) studies in mice; type: in vivo
Description: Pharmacokinetic (PK) Studies. […] Mice were then sacrificed in cohorts of 3 at time points (#, #, #). Blood was collected, centrifuged, and plasma separated for quantification of test compound utilizing LC-MS/MS (UIUC Metabolomics Center, Urbana, IL.). Determined compound concentration was then analyzed using non-linear regression programing (WinNonlin) and pharmacokinetic parameters estimated.

MDA-MB-436 = experiment: Alamar blue fluorescence viability (IC50), MDA-MB-436; type: cell-based; conditions: Homo sapiens
Description: as §1, §2

[5] = tested on: anticipatory unfolded protein response (a-UPR); experiment: a-UPR immunoblotting/western blot in MCF-7 cells; type: cell-based
Description: a-UPR Immunoblotting/Western Blot Procedure. 400,000 MCF-7 cells/per well were seeded into 6 or 12 well plates and allowed to adhere overnight. Media was then aspirated from each well and then fresh media with diluted test compound (0.1% DMSO concentration) was added accordingly. Cells were incubated for 4 or 6 hours, then harvested. PBS-washed cell pellets were then lysed using RIPA buffer containing phosphatase (BioVision) and protease inhibitor cocktail (Calbiochem). Protein concentrations were determined using the BCA assay (Pierce). Lysates containing 10-15 μg of protein were loaded onto 4-20% gradient gels (BioRad), and SDS-PAGE was run. Proteins were then transferred onto membrane (PDVF Millipore) and blots blocked with BSA solution (2 g in 40 mL TBST) for one hour. After blocking, primary antibody was added and incubated overnight (using manufacturer's recommended dilutions). Following overnight incubation, blots were washed with TBST (5-minute incubation for each wash, washed 3 times), then incubated with HRP-linked secondary antibody for 1 hour in TBST. Blots were washed (10-minute incubation for each wash for a total of two ten-minute washes). SuperSignal West Pico Solution was then added following manufacturer's procedures and blots imaged with ChemiDoc.
Antibodies. […]

[6] = In vitro metabolite assessment of ErSO; type: in vitro ADME
[7] = tested on: CD Sprague Dawley IGS rats; experiment: Maximum tolerated dose (MTD) in rats; type: in vivo; conditions: rat, in vivo
Source text: as §4

CD-1 mice = experiment: Maximum tolerated dose (MTD) in mice; type: in vivo; conditions: mouse, in vivo, iv
Source text: as §4

[8] = 100 μM in SGF with pepsin, one-phase decay, read-out: t1/2 (min) (95% CI)
[9] = MCF-7 cells, 24 hours, Alamar blue, mean ± s.e.m., read-out: IC50
[10] = female, CD-1, mouse, plasma, iv, I.V. 20 mg/kg

O=C1Nc2c(C(F)(F)F)cccc2[C@@]1(c1ccc(O)cc1)N1CC(F)(F)C(F)(F)C1 [Compound (R)-26, (R)-3-(4-hydroxyphenyl)-3-(3,3,4,4-tetrafluoropyrrolidin-1-yl)-7-(trifluoromethyl)indolin-2-one]
fold change MCF-7 versus ERα− cell lines (ERα− cancer cell lines): ≥ 3500 | potencies against ERα− cancer cell lines (in words) (ERα− cancer cell lines): double-digit micromolar | IC50 (MCF-7 cells; MCF-7, 24 and 72 hr, read-out: IC50 values): 4 to 5 nM | % Remaining after 120 min (SD) ([1]; 100 μM in SGF with pepsin): 27±1% | half-life at 100 μM [1, 8]: 77 min

O=C1Nc2c(C(F)(F)F)cccc2[C@@]1(c1ccc(O)cc1)c1ccc(OC(F)(F)F)cc1 [ErSO, (R)-3-(4-hydroxyphenyl)-3-(4-(trifluoromethoxy)phenyl)-7-(trifluoromethyl)indolin-2-one, reference compound]
IC50 (HT-29; 24 hr, read-out: IC50 24 hr): 210 ± 60 nM | IC50 (HT-29; 72 hr, read-out: IC50 72 hr): 250 ± 70 nM | IC50 (T47D): 0.02 ± 0.001 µM | effects bottom out at (% cell death at lower concentrations) (HCT-116; HCT-116 cells, bottom of IC50 curve): ~38% | IC50 (HCT-116; 24 hr, read-out: IC50 24 hr): 11 µM | IC50 (HCT-116; 72 hr, read-out: IC50 72 hr): 0.26 µM | tolerated oral dose (canines): greater than 150 mg/kg | IC50 (T47D-ERaY537S (TYS)): 0.01 ± 0.001 µM | IC50 (MDA-MB-231; 24 hr, read-out: IC50 24 hr): 23 ± 3 µM | IC50 (MDA-MB-231; 72 hr, read-out: IC50 72 hr): 8 ± 1 µM | MTD [2]: 10 to 15 mg/kg | IC50 (MCF-7 cells; MCF-7, ERα positive, 24 hr, read-out: IC50 24 hr): 20 ± 2 nM | IC50 (MCF-7 cells; MCF-7, ERα positive, 72 hr, read-out: IC50 72 hr): 14 ± 1 nM | IC50 (MCF-7 cells; [9]): 20 nM | MTD [3]: 20 mg/kg | IC50 (T47D-ERαD538G (TDG)): 15 ± 1 nM | mouse weight change during MCF-7 study (MCF-7 tumors): no significant weight change | CL ([4]; I.V. 20 mg/kg): 33 mL/min/kg | AUC [4, 10]: 10100 ng·h/mL | Cmax [4, 10]: 7710 ng/mL | Vd ([4]; female, CD-1, mouse, plasma, iv, I.V. 20 mg/kg, read-out: Vss): 10.2 L/kg | bioavailability ([4]; female, CD-1, mouse, plasma, po, read-out: oral availability F %): 47% | % Remaining after 120 min (SD) ([1]; 100 μM in SGF with pepsin): 93±1% | half-life at 100 μM ([1]; SGF with pepsin, read-out: half-life in SGF): > 120 min | IC50 (MDA-MB-436; MDA-MB-436, 24 h, read-out: IC50 24 hr (μM)): 22 ± 1 µM | IC50 (MDA-MB-436; MDA-MB-436, 72 h, read-out: IC50 72 hr (μM)): 14 ± 1 µM

O=C1Nc2c(C(F)(F)F)cccc2[C@]1(c1ccc(O)cc1)N1CCC(F)(F)CC1 (single isomer, unassigned) [(S)-2]
a-UPR activation (P-AMPK, P-EIF2α, cleavage of ATF6α p90), western blot [5]: No activation of the a-UPR | anticancer activity against MCF-7 cells (in words) (MCF-7 cells; MCF-7 cells): devoid of any activity

O=C1Nc2c(C(F)(F)F)cccc2[C@]1(c1ccc(OC(F)(F)F)cc1)c1ccc(O)c(O)c1 [ErSO-OH, (S)-3-(3,4-dihydroxyphenyl)-3-(4-(trifluoromethoxy)phenyl)-7-(trifluoromethyl)indolin-2-one]
abundance as metabolite of ErSO [6]: < 1% | rat tolerability (in words) [7]: no gains in rat tolerability | IC50 (MCF-7 cells; [9]): 24 nM | intravenous tolerability in mice (in words) (CD-1 mice): greater intravenous tolerability in mice

O=C1Nc2c(C(F)(F)F)cccc2[C@@]1(c1ccc(O)cc1)N1CCCC(F)(F)C1 [(R)-23, (R)-3-(3,3-difluoropiperidin-1-yl)-3-(4-hydroxyphenyl)-7-(trifluoromethyl)indolin-2-one]
potencies against ERα− cancer cell lines (in words) (ERα− cancer cell lines): double-digit micromolar | % Remaining after 120 min (SD) ([1]; 100 μM in SGF with pepsin): 0±0% | half-life at 100 μM [1, 8]: 10 min
